The subject of one data set is PC-3 cells. The data set is described as follows: Combination study of TRA-8 with Paclitaxel (XTT). The format is cell-based, human. To be noted: Paclitaxel alone, concentrations of up to 200 nM. The protocol: Human prostate cancer cell line PC-3 is obtained from American Tissue Culture Collection (ATCC) and maintained in F-12K Nutrient Mixture (21127-022, Gibco BRL) containing 10% fetal bovine serum (FBS, Hyclone), 1% L-Glutamine-200 mM (25030-149, Gibco BRL) and 0.5% Penicillin Streptomycin Solution (P-7539, Sigma). RPMI1640 medium (MED-008, IWAKI) supplemented with 10% FBS and 0.5% Penicillin Streptomycin Solution is used in the following experiment. Exponentially growing PC-3 cells are collected by trypsinization and washed twice with fresh medium. The cells are then counted, resuspended in fresh medium at a density of 5×10^4 cells/ml and distributed in triplicate into flat-bottomed 96 well plates (3598, Corning-Coster) in a total volume of 100 μl/well one day before the start of the experiment. A representative anti-cancer drug, Paclitaxel (169-18611, Wako) dissolved in dimethylsulfoxide (10 mg/ml) is diluted in fresh medium and then added to the 96-well plates containing the cells at 50 μl/well. The final concentrations of dimethylsulfoxide are less than 0.1%. […] After incubation for a further 24 hr, 50 μl of Minimum Essential Medium (11095-098, Gibco BRL) containing 1 mg/ml of XTT and […] of PMS is added to the wells and the plates are incubated for 6 hr. OD450 is then measured by SPECTRA MAX 250 (Molecular Devices) and the cell viability is calculated as follows.
(In general: Tetrazolium assays rely on reduction of a dye to a coloured formazan, in cell work by metabolically active cells.)

In data set [1] the test system is 2LMP human breast cancer xenografts. Briefly: TRA-8 therapy alone or with chemotherapy or radiation, breast cancer xenografts. It is filed as in vivo, athymic nude mice. The settings on record: aggregate of 6 experiments. On the procedure: Athymic nude mice were injected s.c. with 3×10^7 2LMP cells. […] The growth of tumors was monitored over time. […] Tumor size and regression rates were determined.
Data from 6 independent experiments were analyzed by individual experiment. Treatment combinations were compared with respect to in vivo anti-tumor efficacy, i.e., inhibition of tumor growth, which was measured as three endpoints; extension of tumor doubling times, percentage of tumor regressions, and growth rates over time. The actual number of days at which the tumor doubled in surface area (product of two diameters) relative to baseline on day 7 after tumor cell injection was used in the doubling time analysis. The nonparametric Kruskal-Wallis test was used for median tumor doubling time comparisons between treatments. Fisher's exact test was used to compare the proportions of tumor regressions and relapse-free regressions across treatment groups. To determine if any combination therapy produced significant synergistic inhibition of tumor growth, i.e., more than additive, the growth curves from the serial area measurements were compared using a linear mixed model approach over the first 3 weeks after start of therapy (Lindsey, J. K. Models for Repeated Measurements, pp. 100-142, Oxford, 1993). To test for synergistic effects of the combination therapies, an interaction term was included in the model. If the interaction term was significant and the effect was inhibition of growth at a rate greater than additive then the interaction was considered synergistic.
A total of 166 animals, 10 treatment groups, and 6 independent experiments were included in the aggregate analysis. Treatment combinations were compared with respect to in vivo anti-tumor efficacy. The median tumor doubling times were analyzed using the Kruskal-Wallis test and Fisher's exact test was used to compare the proportions of tumor regressions and relapse-free regressions across treatment groups.

The subject of a further data set is 2LMP xenografts. The data set is described as follows: Analysis of apoptosis in xenografts (TUNEL). It is filed as in vivo, athymic nude mice. The settings on record: day 14. On the procedure:
One group of mice was untreated. The xenografts were dissected for the study of apoptosis on day 14 after tumor cell injection. The reason for the substantial reduction in treatment intensity compared to our standard treatment protocol was to allow adequate tumor tissue for analysis on day 14. Tunel assay for apoptosis in tumor xenografts was performed as follows. Five-micron paraffin sections of tissue were mounted on Superfrost/Plus slides and heated at 58° C. for 1 h. Tissue sections were deparaffinized in three changes of xylene and rehydrated with one change of absolute ethanol, 95% ethanol, and 70% ethanol, each in 5-min increments. Then, the sections were placed in Tris-buffered saline (0.5M Tris base, 0.15 M NaCl, 0.0002% Triton X-100™, pH 7.6). Apoptotic nuclei were detected using an Apop Tag Peroxidase kit (Intergen, Purchase, N.Y.). Proteinase K (20 μg/ml in distilled deionized H2O) was added to the tissue specimens and incubated at room temperature for 15 min. Endogenous peroxidases were quenched with an aqueous solution of 3% hydrogen peroxide for 5 min. Sections were treated with an equilibration buffer for 30 min and then incubated with the TdT/enzyme (diluted in labeling reaction mix) for 1 h at 37° C. using parafilm covers. During this incubation, the TdT enzyme binds the 3′-OH ends of DNA fragments and catalyzes the addition of digoxigenin-labeled and unlabeled deoxynucleotides. Negative controls were incubated with distilled H2O (diluted in labeling reaction mix) instead of the TdT enzyme. A stop buffer was added for 10 min at room temperature to terminate the labeling reaction. An anti-digoxigenin conjugate was added to each slide for 30 min. The chromagen 3,3′ DAB was used to visualize the labeled 3′ OH end of DNA fragments. The slides were then rinsed in deionized water and lightly counterstained with hematoxylin, dehydrated using graded alcohols and xylene and coverlsipped using Permount. Approximately 10 random fields were evaluated for percentage of Tunel stained and percentage of intensely stained apoptotic bodies throughout the tissue.

SMILES strings stand for the structures.

Experimental findings from patent publication US7704502B2, “Combinations of antibodies selective for DR5 and other therapeutic agents” (The UAB Research Foundation, priority 2000, dated 2010) are described below.

Regarding `CC(=O)O[C@H]1C(=O)[C@@]2(C)[C@H]([C@H](OC(=O)c3ccccc3)[C@]3(O)C[C@H](OC(=O)[C@H](O)[C@@H](NC(=O)c4ccccc4)c4ccccc4)C(C)=C1C3(C)C)[C@]1(OC(C)=O)CO[C@@H]1C[C@@H]2O` [Paclitaxel], in the data set on PC-3 cells, the cell viability remaining entry was “more than 40%”. Besides, in data set [1] (number of animals (%)), the “Complete Regressions No relapse (%)” value is recorded as 0 and the “Complete Regressions Total (%)” value is listed as 0. In addition, in data set [1] (relative to day 7), the “Tumor Doubling Time (mean)” value was 25 days and the “Tumor Doubling Time (median)” value worked out at 20 days. Moreover, the TUNEL stained cells with 2LMP xenografts (100 μg TRA-8 days 7, 10, adriamycin 3 mg/kg or paclitaxel 10 mg/kg days 8, 11, untreated 4%) was found to be 7%. Besides, the intensely stained cells with 2LMP xenografts (same regimen, untreated 1%) is on record as 2%.
